Test results reported in PMC9458059, “Design, Synthesis and Biological Evaluation of New Carbohydrate-Based Coumarin Derivatives as Selective Carbonic Anhydrase IX Inhibitors via “Click” Reaction” (Molecules, 2022).
Like-named read-outs stand apart in the source and are kept apart here.

What was measured:
[1] = Metabolic stability in mouse liver microsomes; conditions: mouse, liver microsomes
hCA I = biological target: T1, hCA I (Homo sapiens, UniProt P00915); assay: CA inhibition by the esterase assay, hCA I; assay type: biochemical; conditions: human recombinant enzyme, 4-nitrophenylacetate as substrate
T1 construct: purchased
T1 sequence (P00915 whole entry): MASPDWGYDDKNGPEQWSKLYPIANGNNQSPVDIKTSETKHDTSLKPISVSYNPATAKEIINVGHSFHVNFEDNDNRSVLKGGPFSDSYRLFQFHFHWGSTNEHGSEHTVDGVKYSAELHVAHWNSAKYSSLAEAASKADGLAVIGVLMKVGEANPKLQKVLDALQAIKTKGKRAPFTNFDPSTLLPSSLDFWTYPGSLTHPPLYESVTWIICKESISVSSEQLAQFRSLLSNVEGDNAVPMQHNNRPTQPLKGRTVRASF
Experimental: (§1) The esterase assay was used for testing the inhibitory activities of target compounds against carbonic anhydrases. […] Next, the stock solution of inhibitor was diluted to the specified concentration by using analysis buffer. […] In addition, the purchased CA was diluted with analysis buffer and added to 96-well plates. Next, different concentrations of inhibitors were also added to 96-well plates. To form the inhibitors and enzymes complex, E-I solutions were preincubated together for 4 h before the test at room temperature. Meanwhile, the nonenzymatic hydrolysis rates were tested by the blank control experiments. The absorbances were determined by using multifunctional enzyme marking instrument.

HT-29 cells = assay: Cell viability MTT assay, HT-29; assay type: cell-based; conditions: Homo sapiens
Experimental: (§2) In the present study, the potential cytotoxicity of compounds 10a–10p was evaluated in vitro by MTT assay. […] So, half of each cell line were subjected to hypoxic conditions (0.5% O2, 5% CO2 and 94.5% N2) for inducing the expression of CA IX and the other half were incubated under normal conditions (normoxia). Subsequently, all synthesized derivatives were screened at a concentration of 100 μM to test their cytotoxicity in mentioned above cells.
(§3) The two human cancer cell lines were cultivated for 24 h at 37 °C in a 96-well plate. Subsequently, different concentrations of inhibitors were added to 96-well plate and then was incubated for 96 hours. After the MTT solution was added to per well, cancer cells were further incubated for 4 h at 37 °C. Finally, formazan crystals were dissolved by using DMSO. The cancer cells were from American Type Culture Collection.

MDA-MB-231 cells = assay: Cell viability MTT assay, MDA-MB-231; assay type: cell-based; conditions: Homo sapiens
Experimental: as §2, §3

hCA II = hCA II (Homo sapiens, UniProt P00918); assay: CA inhibition by the esterase assay, hCA II; assay type: biochemical; conditions: human recombinant enzyme, 4-nitrophenylacetate as substrate
Experimental: as §1

hCA IX = biological target: T2, hCA IX (Homo sapiens, UniProt Q16790); assay: CA inhibition by the esterase assay, hCA IX; assay type: biochemical; conditions: for IC50: human recombinant enzyme, esterase assay, 4-nitrophenylacetate as substrate; for Selectivity Ratio hCA I/hCA IX / Selectivity Ratio hCA II/hCA IX: ratio of IC50 values
T2 construct: purchased
Experimental: as §1

CAI = conditions: reported coumarins, Figure 1; cited from earlier work
CAIX = conditions: reported coumarins, Figure 1; cited from earlier work
[2] = hypoxia (0.5% O2, 5% CO2 and 94.5% N2), read-out: Cell Viability (%) HT-29 Hypoxia
[3] = normoxia, read-out: Cell Viability (%) HT-29 Normoxia
[4] = hypoxia (0.5% O2, 5% CO2 and 94.5% N2), read-out: Cell Viability (%) MDA-MB-231 Hypoxia
[5] = normoxia, read-out: Cell Viability (%) MDA-MB-231 Normoxia

Structure (SMILES)	CLint scaled at 1 μM [1] [mL/min/kg]	half-life at 1 μM [1] [h]	IC50 (hCA I) [µM]	IC50 (hCA II) [µM]	IC50 (hCA IX) [µM]	Selectivity Ratio hCA I/hCA IX (hCA IX)	Selectivity Ratio hCA II/hCA IX (hCA IX)	melting point [°C]	viability at 100 µM (HT-29 cells; [2]) [%]	viability at 100 µM (HT-29 cells; [3]) [%]	viability at 100 µM (MDA-MB-231 cells; [4]) [%]	viability at 100 µM (MDA-MB-231 cells; [5]) [%]	Ki (CAI) [µM]	Ki (CAIX) [µM]
Cc1cc(=O)oc2cc(OCc3cn([C@@H]4OC[C@@H](O)[C@H](O)[C@H]4O)nn3)ccc12 [Compound 10m, 7-[(1-β-. D-xylopyranosyl-1H-1,2,3-triazol-4-yl)methoxy]-4-methyl-2H-chromen-2-one]	3.38	27.1	43.9	22.6	0.067	655	337	122.4 to 123.9	35.5	40.5	39.8	53.2		
CC(=O)Nc1nnc(S(N)(=O)=O)s1 [AAZ, acetazolamide, reference compound]									80.1	85.2	80.3	84.7		
Cc1cc(=O)oc2cc(OCc3cn([C@@H]4O[C@H](CO)[C@@H](O)[C@H](O)[C@H]4N)nn3)ccc12 [Compound 10l, 7-[(1-β-. D-glucosaminogly-1H-1,2,3-triazol-4-yl)methoxy]-4-methyl-2H-chromen-2-one]	3.07	29.8	56.9	31.4	0.032	1778	981	126.2 to 128.4	44.8	51.2	38.5	65.1		
C[C@@H]1O[C@H](n2cc(COc3ccc4ccc(=O)oc4c3)nn2)[C@H](O)[C@H](O)[C@H]1O [Compound 10g, 7-[(1-β-. L-rhamnosyl-1H-1,2,3-triazol-4-yl)methoxy]-2H-chromen-2-one]	3.65	25	36.5	31.6	0.124	294	255	126.1 to 129.6	38.7	42.4	36.1	53.2		
O=c1ccc2ccc(OCc3cn([C@@H]4O[C@H](CO)[C@H](O)[C@H](O)[C@H]4O)nn3)cc2o1 [Compound 10b, 7-[(1-β-. D-galactopyranosyl-1H-1,2,3-triazol-4-yl)methoxy]-2H-chromen-2-one]	4.33	21.1	24.3	31.3	0.074	328	423		48.7	50.5	33.7	61.4		
O=c1ccc2ccccc2s1 [Thiocoumarin 3, thiocoumarin]													> 100	
O=c1ccc2ccc(OCc3cn([C@@H]4OC[C@H](O)[C@H](O)[C@H]4O)nn3)cc2o1 [Compound 10f, 7-[(1-β-. L-arabinopyranosyl-1H-1,2,3-triazol-4-yl)methoxy]-2H-chromen-2-one]	3.75	24.4	65.6	31.7	0.042	1562	755	133.1 to 135.1	38.1	48.7	33.8	65.6		
O=c1ccc2ccccc2o1 [Compound 2]														> 50
O=c1ccc2ccc(OCc3cn([C@@H]4OC[C@@H](O)[C@H](O)[C@H]4O)nn3)cc2o1 [Compound 10e, 7-[(1-β-. D-xylopyranosyl-1H-1,2,3-triazol-4-yl)methoxy]-2H-chromen-2-one]	4.04	22.6	42.3	21	0.061	693	344	128.4 to 130.6	39.5	49.3	42.9	58.2		
N[C@@H]1[C@@H](O)[C@H](O)[C@@H](CO)O[C@H]1n1cc(COc2ccc3ccc(=O)oc3c2)nn1 [Compound 10d, 7-[(1-β-. D-glucosaminogly-1H-1,2,3-triazol-4-yl)methoxy]-2H-chromen-2-one]	4.26	21.5	51.5	32.8	0.057	904	575	131.3 to 134.2	45.6	57	38.9	60.2		
Cc1cc(=O)oc2cc(OCc3cn([C@@H]4OC[C@H](O)[C@H](O)[C@H]4O)nn3)ccc12 [Compound 10n, 7-[(1-β-. L-arabinopyranosyl-1H-1,2,3-triazol-4-yl)methoxy]-4-methyl-2H-chromen-2-one]	3.56	25.7	35.7	12.2	0.045	793	271	129.3 to 132.5	38.2	41.5	38.5	65.7		

Second part, led by results:

CLint scaled at 1 μM [1] [mL/min/kg]	half-life at 1 μM [1] [h]	IC50 (hCA I) [µM]	IC50 (hCA II) [µM]	IC50 (hCA IX) [µM]	Selectivity Ratio hCA I/hCA IX (hCA IX)	Selectivity Ratio hCA II/hCA IX (hCA IX)	melting point [°C]	Structure (SMILES)	viability at 100 µM (HT-29 cells; [2]) [%]	viability at 100 µM (HT-29 cells; [3]) [%]	viability at 100 µM (MDA-MB-231 cells; [4]) [%]	viability at 100 µM (MDA-MB-231 cells; [5]) [%]	Ki (CAI) [µM]	Ki (CAIX) [µM]
2.98	30.7	63.4	22.4	0.098	647	229	123.2 to 125.6	Cc1cc(=O)oc2cc(OCc3cn([C@@H]4O[C@H](CO)[C@@H](O)[C@H]4O)nn3)ccc12 [Compound 10p, 7-[(1-β-. D-ribofuranosyl-1H-1,2,3-triazol-4-yl)methoxy]-4-methyl-2H-chromen-2-one]	36.7	63.1	35.2	73.1		
3.25	28.1	49	23	0.042	1167	548	121.5 to 122.6	Cc1cc(=O)oc2cc(OCc3cn([C@@H]4O[C@H](CO)[C@@H](O)[C@H](O)[C@@H]4O)nn3)ccc12 [Compound 10k, 7-[(1-β-. D-mannopyranosyl-1H-1,2,3-triazol-4-yl)methoxy]-4-methyl-2H-chromen-2-one]	40.3	52.3	33.7	61.3		
3.83	23.9	32.1	14	0.084	382	167	127.9 to 130.2	Cc1cc(=O)oc2cc(OCc3cn([C@@H]4O[C@H](CO)[C@@H](O)[C@H](O)[C@H]4O)nn3)ccc12 [Compound 10i, 7-[(1-β-. D-glucopyranosyl-1H-1,2,3-triazol-4-yl)methoxy]-4-methyl-2H-chromen-2-one]	42.6	48.5	33.2	65.2		
3.13	29.2	57.5	32.1	0.096	599	334	125.5 to 127.7	Cc1cc(=O)oc2cc(OCc3cn([C@H]4O[C@@H](C)[C@H](O)[C@@H](O)[C@H]4O)nn3)ccc12 [Compound 10o, 7-[(1-β-. L-rhamnosyl-1H-1,2,3-triazol-4-yl)methoxy]-4-methyl-2H-chromen-2-one]	33.3	45.7	38.7	60.3		
3.5	26.1	44.1	16.1	0.098	450	164	124.2 to 126.6	Cc1cc(=O)oc2cc(OCc3cn([C@@H]4O[C@H](CO)[C@H](O)[C@H](O)[C@H]4O)nn3)ccc12 [Compound 10j, 7-[(1-β-. D-galactopyranosyl-1H-1,2,3-triazol-4-yl)methoxy]-4-methyl-2H-chromen-2-one]	46.4	60.2	40.9	64.7		
